# Test results taken from ChEMBL document CHEMBL1201862, “PubChem BioAssay data set” (2004).
#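 These data come from cells grown in 96-well plates and exposed to compound for 48 hours at five concentrations. Abbreviation: GI50, concentration required for 50% inhibition of growth.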 Calls of active or inactive are those of the source. Rule as the data show it: active = GI50 up to about 1.1 µM and inactive = higher.
# What was measured:
# Assay in all cases: NCI-60 cell line screen, 48 h
# Hs-578T = tested on: Hs-578T
# SN12C = tested on: SN12C
# NCI-H23 = tested on: NCI-H23
# A498 = tested on: A498
# LOX IMVI = tested on: LOX IMVI
# SF-539 = tested on: SF-539
# T47D = tested on: T47D
# EKVX = tested on: EKVX
# OVCAR-3 = tested on: OVCAR-3
# ACHN = tested on: ACHN
# MOLT-4 = tested on: MOLT-4
# HOP-62 = tested on: HOP-62
# HT-29 = tested on: HT-29
# SK-MEL-28 = tested on: SK-MEL-28
# NCI/ADR-RES = tested on: NCI/ADR-RES
# MDA-MB-435 = tested on: MDA-MB-435
# HCT-15 = tested on: HCT-15
# SK-MEL-5 = tested on: SK-MEL-5
# A549 = tested on: A549
# MDA-N = tested on: MDA-N
SMILES,GI50 (Hs-578T),GI50 (SN12C),GI50 (NCI-H23),GI50 (A498),GI50 (LOX IMVI),GI50 (SF-539),GI50 (T47D),GI50 (EKVX),GI50 (OVCAR-3),GI50 (ACHN),GI50 (MOLT-4),GI50 (HOP-62),GI50 (HT-29),GI50 (SK-MEL-28),GI50 (NCI/ADR-RES),GI50 (MDA-MB-435),GI50 (HCT-15) [µM],GI50 (SK-MEL-5),GI50 (A549),GI50 (MDA-N)
O=C(CCSC(CC(=O)c1ccc(Cl)cc1)c1ccc(Cl)cc1)Nc1ccc(Cl)cc1 (configuration not stated),26.3 µM (inactive),12.4 µM (inactive),16.3 µM (inactive),12.4 µM (inactive),5.83 µM (inactive),18.4 µM (inactive),6.03 µM (inactive),12.7 µM (inactive),14.1 µM (inactive),14.4 µM (inactive),3.01 µM (inactive),13.3 µM (inactive),9.23 µM (inactive),15.4 µM (inactive),15.5 µM (inactive),12.3 µM (inactive),10.8,15.9 µM (inactive),14.6 µM (inactive),9.68 µM (inactive)
O=C(/C=C/c1ccc(OCC(=O)N2CCN(c3ccccc3)CC2)cc1)c1ccc(Cl)cc1,21.7 µM (inactive),89.5 µM (inactive),50.4 µM (inactive),23.4 µM (inactive),> 100 µM (inactive),19 µM (inactive),52.7 µM (inactive),> 60.7 µM (inactive),> 92 µM (inactive),22.4 µM (inactive),> 100 µM (inactive),21.7 µM (inactive),> 100 µM (inactive),> 100 µM (inactive),59.2 µM (inactive),> 100 µM (inactive),> 100,54.2 µM (inactive),38.7 µM (inactive),> 100 µM (inactive)
Oc1ccc(-c2cc(-c3cc(-c4ccc(O)cc4)no3)on2)cc1,> 100 µM (inactive),–,> 100 µM (inactive),> 100 µM (inactive),11.5 µM (inactive),4.13 µM (inactive),33.1 µM (inactive),26.5 µM (inactive),> 100 µM (inactive),2.81 µM (inactive),1.35 µM (inactive),> 50.9 µM (inactive),> 100 µM (inactive),> 100 µM (inactive),> 100 µM (inactive),> 100 µM (inactive),1.98,36.9 µM (inactive),50 µM (inactive),36.9 µM (inactive)
CN(CCN)[C@H](CSSC[C@@H](c1ccccc1O)N(C)CCN)c1ccccc1O,20.4 µM (inactive),9.48 µM (inactive),13.8 µM (inactive),20.2 µM (inactive),4.27 µM (inactive),15.1 µM (inactive),26.1 µM (inactive),11.5 µM (inactive),8.38 µM (inactive),10.1 µM (inactive),4.73 µM (inactive),12.1 µM (inactive),9.55 µM (inactive),14.3 µM (inactive),6.1 µM (inactive),18 µM (inactive),5.33,12 µM (inactive),7.24 µM (inactive),11.9 µM (inactive)
CCN(CC)/[N+]([O-])=N/OCOC,> 100 µM (inactive),> 100 µM (inactive),> 100 µM (inactive),> 100 µM (inactive),> 100 µM (inactive),> 100 µM (inactive),> 100 µM (inactive),> 100 µM (inactive),> 100 µM (inactive),> 100 µM (inactive),> 100 µM (inactive),> 100 µM (inactive),> 100 µM (inactive),> 100 µM (inactive),> 100 µM (inactive),> 100 µM (inactive),> 100,> 100 µM (inactive),> 100 µM (inactive),> 100 µM (inactive)
CCN1C(=O)CS/C1=N\NC(=O)CSc1nc2ccccc2c(=O)n1CC,> 100 µM (inactive),> 100 µM (inactive),> 100 µM (inactive),> 100 µM (inactive),> 100 µM (inactive),> 100 µM (inactive),> 100 µM (inactive),> 100 µM (inactive),> 100 µM (inactive),> 100 µM (inactive),> 100 µM (inactive),> 100 µM (inactive),–,> 100 µM (inactive),> 100 µM (inactive),> 100 µM (inactive),> 100,> 100 µM (inactive),> 100 µM (inactive),> 100 µM (inactive)
CC1=NN(c2cccc(Cl)c2)C(=N/c2nc3ccccc3s2)/C1=C\C=C\c1ccccc1,24.3 µM (inactive),–,32.1 µM (inactive),24.7 µM (inactive),32.2 µM (inactive),43.8 µM (inactive),46.7 µM (inactive),47.6 µM (inactive),27 µM (inactive),28 µM (inactive),0.369 µM (active),30.8 µM (inactive),33.5 µM (inactive),29.3 µM (inactive),59.2 µM (inactive),33.8 µM (inactive),32.2,20.6 µM (inactive),–,37.2 µM (inactive)
Cc1ccc(S(=O)(=O)N2CCN(CCO)CCN(S(=O)(=O)c3ccc(C)cc3)CCN(CCO)CC2)cc1,30.1 µM (inactive),45 µM (inactive),18.2 µM (inactive),24.7 µM (inactive),13.6 µM (inactive),15.8 µM (inactive),17.5 µM (inactive),18.2 µM (inactive),18.7 µM (inactive),31 µM (inactive),19.7 µM (inactive),27.5 µM (inactive),12.2 µM (inactive),16.3 µM (inactive),18.5 µM (inactive),15.1 µM (inactive),18.6,13.6 µM (inactive),20.7 µM (inactive),27.2 µM (inactive)
CCCCCCCCCCC1OC([C@@H](O)CC[C@H](O)C2CC[C@@H](CCCCCCCC(O)CC3=CC(C)OC3=O)O2)CCC1O (some centres not stated),2.68 µM (inactive),9.12 µM (inactive),0.363 µM (active),> 14.9 µM (inactive),1.27 µM (inactive),14.4 µM (inactive),7.71 µM (inactive),2.09 µM (inactive),5.64 µM (inactive),6.38 µM (inactive),–,4.53 µM (inactive),5.4 µM (inactive),> 17.9 µM (inactive),1.5 µM (inactive),7.24 µM (inactive),10.1,0.115 µM (active),5.21 µM (inactive),3.57 µM (inactive)
Nc1nc(Cl)cc(NCC2(CO)CCC(CCc3ccccc3)C2)n1 (configuration not stated),21.3 µM (inactive),16 µM (inactive),2.88 µM (inactive),12.8 µM (inactive),7.89 µM (inactive),17.9 µM (inactive),0.877 µM (active),0.771 µM (active),7.45 µM (inactive),13.8 µM (inactive),2.7 µM (inactive),1.05 µM (active),7.94 µM (inactive),19.6 µM (inactive),11.9 µM (inactive),14.3 µM (inactive),16.3,0.0665 µM (active),12.6 µM (inactive),14.2 µM (inactive)
Cc1cccc(/C=N/NC(=S)Nc2ccccc2)n1,20.1 µM (inactive),2.8 µM (inactive),6.18 µM (inactive),15.3 µM (inactive),2.67 µM (inactive),2.89 µM (inactive),2.84 µM (inactive),5.97 µM (inactive),1.97 µM (inactive),2.6 µM (inactive),3.27 µM (inactive),2.93 µM (inactive),3.17 µM (inactive),12.2 µM (inactive),2.88 µM (inactive),7.6 µM (inactive),1.98,3.08 µM (inactive),5.61 µM (inactive),4 µM (inactive)
O=C(/C=C\Nc1ccccc1O)C(Cl)(Cl)Cl,69 µM (inactive),72.8 µM (inactive),35.7 µM (inactive),35.6 µM (inactive),31.8 µM (inactive),56.2 µM (inactive),28 µM (inactive),45.7 µM (inactive),17.8 µM (inactive),26.9 µM (inactive),27.7 µM (inactive),24.1 µM (inactive),36.1 µM (inactive),43.1 µM (inactive),99.3 µM (inactive),20.6 µM (inactive),38.5,> 100 µM (inactive),48.2 µM (inactive),25.3 µM (inactive)
Cc1ccc(CNNC(=O)c2cc[n+]([BH2-]C#N)cc2)cc1,48.5 µM (inactive),> 100 µM (inactive),> 100 µM (inactive),15.6 µM (inactive),> 100 µM (inactive),> 100 µM (inactive),> 100 µM (inactive),87.7 µM (inactive),> 100 µM (inactive),11.3 µM (inactive),71.3 µM (inactive),> 100 µM (inactive),> 100 µM (inactive),> 100 µM (inactive),> 100 µM (inactive),> 100 µM (inactive),> 100,> 100 µM (inactive),95.7 µM (inactive),> 100 µM (inactive)
CC1(C)[C@@H](Cn2cnc3c(Cl)nc(N)nc32)CC[C@@]1(C)CO,19.7 µM (inactive),57.3 µM (inactive),–,> 100 µM (inactive),27.9 µM (inactive),> 100 µM (inactive),> 100 µM (inactive),58.9 µM (inactive),33 µM (inactive),> 100 µM (inactive),–,> 100 µM (inactive),–,43.5 µM (inactive),83.4 µM (inactive),26.4 µM (inactive),35.9,18.7 µM (inactive),> 100 µM (inactive),32.4 µM (inactive)
c1csc(-c2nccc3c2[nH]c2ccccc23)c1,46 µM (inactive),16.8 µM (inactive),18.7 µM (inactive),15.3 µM (inactive),20.5 µM (inactive),16.4 µM (inactive),11.8 µM (inactive),46.6 µM (inactive),20.5 µM (inactive),24.5 µM (inactive),22.2 µM (inactive),18.3 µM (inactive),15.1 µM (inactive),25.6 µM (inactive),22.2 µM (inactive),18.3 µM (inactive),20.4,16.7 µM (inactive),18.5 µM (inactive),17.5 µM (inactive)
